# Results from patent publication EP0794786B1, “THE USE OF INOSITOLTRI[…] THE PREPARING OF MEDICAMENTS” (Bioneris AB,, priority 1994, dated 1996).
# Columns and labels:
# Format in all cases: in vivo
# [1] = system: glioma tumor tissue; test: Glioma tumor growth in mice after subcutaneous inoculation of rat glial cells, IP3 via osmotic minipumps
# Description: Rat glial cells were grown in a stationary suspension culture in a medium supplemented with 15 % heat inactivated horse serum and 2.5 % heat inactivated fetal calf serum in a 5 % CO2 humidified atmosphere at 37°C.
# The cells were harvested using trypsine solution and the concentration of cells were measured. The cells were centrifuged and resuspended to a concentration of 1 million cells/ml.
# Twelve female specific pathogen free mice at an age of 12 weeks (weighing 20-25 g) were maintained in autoclaved cages with filter tops in horizontal air flow cabiners in a unit equipped with specific filters. Autoclaved bedding, irradiated feed and sterile water was used. The temperature and humidity was kept constant at 22 ± 2°C, 65 ± 5 % relative humidity.
# To each animal 0.1 ml of the cellsuspension was inoculated subcutanousely in the right flank at day 0.
# After five days, osmotic minipumps (ALZET) were surgically placed subcutanously into 7 animals, while 5 animals, shamoperated, served as a control group.
# Each minipump contained approximately 200 µl of a solution of 1.0 g/2,5 ml of the sodium salt of 1-D-myo-inositol-1,2,6-trisphosphate (IP3). The minipumps gave a continous dosage of IP3 for 14 days.
# The injection of glioma cells into the animals cause a growth of tumors. The growth of the tumors was examined by measuring two diameters along two perpendicular axes. The true tumor diameter was estimated as the diameter minus 0.5 mm (which is the thickness of the skin). Tumor area (A) was calculated by multiplying the two true diameters and tumor volume was calculated by the formula: /6 x A^3/2 x 0.67.
# [2] = system: prostate tumor tissue; test: Prostate tumor growth in mice after subcutaneous injection of a specific cell type, IP3 via osmotic minipumps
# Text: In a procedure similar to the one described in example 2 prostate tumor growth was induced by subcutanous injection of a specific cell type to mice. One group of animals received IP3 via osmotic minipumps while another group of animals served as a control.
# [3] = system: Lewis lung carcinoma cells (ATCC CRL-1642); test: Lewis lung carcinoma experiment in mice: lung weight and histological angiogenesis
# Description: Lewis lung carcinoma cells (ATCC CRL-1642) were grown as a suspension culture in a medium with 4.5 g/l glucose with 10 % heat inactivated bovine serum in a 5 % CO2 humidified atmosphere at 37°C. The cells were subcultured by diluting cell suspensions 1:6. After harvesting by centrifugation and resuspension, the cells were counted in a counting chamber. The cells were resuspended with medium to a concentration of 10 million cells/ml.
# Ten male specific pathogen free mice at an age of 6 weeks were maintained in autoclaved caves with filter tops in a barrier unit equipped with HEPA filters. Autoclaved bedding, irradiated feed and sterile filtered water was used. The temperature and humidity was kept constant (22 ± 2°C, 65 ± 5 % RH).
# To each animal 0.1 ml of the cell suspension was inoculated subcutanousely in the right flank at day 0. After 15 days, osmotic minipumps (ALZET) were surgically placed subcutaneously into 5 animals while another 5 animals, sham operated, served as a control group.
# Each minipump contained 226 µl of a solution of 0.4 g/ml of the sodium salt of 1-D-myo-inositol-1,2,6-trisphosphate (IP3). The minipumps gave a continous dosage of IP3 for 6 days.
# The injection of lung carcinoma cells cause a formation of tumors and angiogenesis in lung tissue. The weight of the lungs after the experiment is considered as a measurement of the amount of tumor tissue which is formed.
# [4] = Toxicity after intraperitoneal injection to mice; conditions: 160 mg/kg body weight by intraperitoneal injection to mice
smiles,measurement,setting,value
"O=P(O)(O)O[C@@H]1[C@H](OP(=O)(O)O)[C@H](O)[C@@H](O)[C@H](O)[C@H]1OP(=O)(O)O [IP3, D-myo-inositol-1,2,6-trisphosphate]",Tumor volume,[1]; Day 0 (inoculation; minipumps placed after five days),0 mm^3
same,Tumor volume,"[1]; Day 10, sodium salt of IP3 1.0 g/2,5 ml, approx. 200 µl minipump s.c. from day 5, continuous for 14 days",115 mm^3
same,Tumor volume,"[1]; Day 13, minipump s.c. from day 5, continuous for 14 days",270 mm^3
same,Tumor volume,"[1]; Day 15, minipump s.c. from day 5, continuous for 14 days",620 mm^3
same,Tumor volume,"[1]; Day 17, minipump s.c. from day 5, continuous for 14 days",880 mm^3
same,Tumor volume,"[1]; Day 20, minipump s.c. from day 5, continuous for 14 days",2420 mm^3
same,Tumor volume,[2]; Day 0,0 mm^3
same,Tumor volume,[2]; Day 7,36 mm^3
same,Tumor volume,[2]; Day 10,62 mm^3
same,Tumor volume,[2]; Day 17,51 mm^3
same,Tumor volume,[2]; Day 24,95 mm^3
same,Tumor volume,[2]; Day 28,171 mm^3
same,Tumor volume,[2]; Day 35,215 mm^3
same,angiogenesis (histological examination),"[3]; IP3 minipump s.c. after 15 days, for 6 days, compared with sham operated animals",lower angiogenesis
same,mean lung weight,"[3]; sodium salt of IP3 0.4 g/ml, 226 µl minipump s.c. after 15 days, continuous for 6 days, sham operated animals 0.312 g",0.198 g
same,toxic effects,[4],no toxic effects
